Measured values as given in US6051712A, “Piperidine derivatives having renin inhibiting activity” (Hoffmann-La Roche Inc., priority 1995, dated 2000).
Counter-ions that a name gives are not always drawn. Like-named read-outs stand apart in the source and are kept apart here.

Target: T1, human renin (Homo sapiens, UniProt P00797)
T1 sequence (P00797 67-406): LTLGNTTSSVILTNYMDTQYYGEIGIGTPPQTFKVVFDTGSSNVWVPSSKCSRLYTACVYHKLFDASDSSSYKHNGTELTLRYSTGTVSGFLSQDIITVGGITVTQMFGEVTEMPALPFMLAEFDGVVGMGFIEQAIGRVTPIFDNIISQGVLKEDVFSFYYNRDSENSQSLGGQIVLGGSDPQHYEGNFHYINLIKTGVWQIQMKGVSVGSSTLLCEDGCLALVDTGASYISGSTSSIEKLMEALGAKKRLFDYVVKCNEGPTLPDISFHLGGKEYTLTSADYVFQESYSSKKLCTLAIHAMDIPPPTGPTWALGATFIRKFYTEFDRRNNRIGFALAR
Test: In vitro test with pure human renin (angiotensin I production from human tetradecapeptide renin substrate, measured by RIA)
Type: biochemical
Protocol: In vitro test with pure human renin
The test is carried out in Eppendorf test tubes. The incubation mixture consists of (1) 100 μl of human renin in buffer A (0.1M sodium phosphate solution, pH 7.4, containing 0.1% bovine serum albumin, 0.1% sodium azide and 1 mM ethylenediaminetetraacetic acid), sufficient for a renin activity of 2-3 ng of angiotensin l/ml/hr.; (2) 145 μl of buffer A: (3) 30 μl of 10 mM human tetradecapeptide renin substrate (hTD) in 10 mM hydrochloric acid: (4) […] of dimethyl sulphoxide with or without inhibitor and (5) 10 μl of a 0.03 molar solution of hydroxyquinoline sulphate in water.
The samples are incubated for three hours at 37° C. and, respectively, 4° C. in triplicate. 2×100 μl samples per test tube are used in order to measure the production of angiotensin I via RIA (standard radioimmunoassay; clinical assay solid phase kit). […] The production of angiotensin I is determined by the difference between the test at 37° C, and that at 4° C.
The following controls are carried out:
(a) Incubation of hTD samples without renin and without inhibitor at 37° C. and 4° C. The difference between these two values gives the base value of the angiotensin I production.
(b) Incubation of hTD samples with renin, but without inhibitor at 37° C. and 4° C. The difference between these values gives the maximum value of the angiotensin I production.
In each sample the base value of the angiotensin I production is subtracted from the angiotensin I production which is determined. The difference between the maximum value and the base value gives the value of the maximum substrate hydrolysis (=100%) by renin.
The IC50 values are determined from a linear regression curve from a logit-log plot.

[1] = pure human renin, pH 7.4, three hours at 37° C. (less 4° C.), human tetradecapeptide substrate, angiotensin I by RIA, read-out: IC50 values (concentration of the inhibitor at which the enzymatic activity is inhibited by 50%)

Row | IC50 [1] [nM] | IC50 [nM] | Structure (SMILES)
1 | 2 |  | CN(C)Cc1ccc2ccc(CO[C@H]3CNCC[C@@H]3c3ccc(OCCCOCc4ccccc4)cc3)cc2c1 (racemic) [QQ, (7-{(3RS,4RS)-4-[4-(3-benzyloxy-propoxy)-phenyl]-piperidin-3-yloxymethyl}-naphthalen-2-ylmethyl)-dimethyl-amine]
2 |  | 41 | c1ccc(-c2noc(COc3ccc([C@H]4CCNC[C@@H]4OCc4ccc5ccccc5c4)cc3)n2)cc1 (racemic) [E, (3RS,4RS)-3-(naphthalen-2-ylmethoxy)-4-[4-(3-phenyl-[1,2,4]oxadiazol-5-ylmethoxy)-phenyl]-piperidine trifluoroacetate]
3 | 33 |  | c1ccc(SCCCc2ccc([C@H]3CCNC[C@@H]3OCc3ccc4ccccc4c3)cc2)cc1 (racemic) [G, (3RS,4RS)-3-(naphthalen-2-ylmethoxy)-4-[4-(3-phenylsulphanyl-propyl)-phenyl]-piperidine]
4 | 17 |  | OCC(O)COc1ccc2ccc(CO[C@H]3CNCC[C@@H]3c3ccc(OCCCOCc4ccccc4)cc3)cc2c1 (mixture of isomers) [O, a mixture of (RS)- and (SR)-3-[7-[(3RS,4RS)-4-[4-(3-benzyloxy-propoxy)-phenyl]-piperidin-3-yloxymethyl]-naphthalen-2-yloxy]-propane-1,2-diol]
5 | 2 |  | COc1cc(CO[C@H]2CNC[C@@H](O)[C@@H]2c2ccc(OCCCOCc3ccccc3)cc2)c(OC)c2ccccc12 (racemic) [S, (3RS,4SR,5SR)-4-[4-(3-benzyloxy-propoxy)-phenyl]-3-(1,4-dimethoxy-naphthalen-2-ylmethoxy)-piperidin-5-ol]
6 |  | 8 | c1ccc(COCCCOc2ccc([C@H]3CCNC[C@@H]3OCc3ccc4ccccc4c3)cc2)cc1 (racemic) [M, (3RS,4RS)-4-[4-(3-benzyloxy-propoxy)-phenyl]-3-(naphthalen-2-ylmethoxy)-piperidine]
7 | 9 |  | COc1ccccc1COCCCOc1ccc([C@H]2CCNC[C@@H]2OCc2ccc3ccc(=O)[nH]c3c2)cc1 (racemic) [WW, (3RS,4RS)-4-[4-[3-(2-methoxy-benzyloxy)-propoxy]-phenyl]-3-(2-oxo-1,2-dihydro-quinolin-7-ylmethoxy)-piperidine]
8 | 12 |  | O=C(Cc1ccc2ccccc2c1)[C@H]1CNC[C@@H](COCCN2CCOCC2)[C@@H]1c1ccc(OCCCOCc2ccccc2)cc1 (racemic) [KK, 1-[(3RS,4SR,5SR)-4-[4-(3-benzyloxy-propoxy)-phenyl]-5-(2-morpholin-4-yl-ethoxymethyl)-piperidin-3-yl]-2-naphthalen-2-yl-ethanone]
9 | 0.6 |  | COc1cc(CO[C@H]2CNCC[C@@H]2c2cnc(OCCCCC3CCCCC3)nc2)c(OC)c2ccccc12 (relative stereo) [FF]
10 | 2 |  | OCCOCc1ccc2ccc(CO[C@H]3CNCC[C@@H]3c3ccc(OCCCOCc4ccccc4)cc3)cc2c1 (racemic) [PP, 2-(7-{(3RS,4RS)-4-[4-(3-benzyloxy-propoxy)-phenyl]-piperidin-3-yloxymethyl}-naphthalen-2-ylmethoxy)-ethanol]
11 |  | 0.1 | COc1ccccc1COCCCOc1ccc([C@H]2CCNC[C@@H]2OCc2cc(OC)c3ccccc3c2OC)cc1 (relative stereo) [UU]
12 | 3 |  | c1ccc(COCCCOc2ccc([C@@H]3[C@@H](OCc4ccc5ccccc5c4)CNC[C@H]3OCCN3CCOCC3)cc2)cc1 (racemic) [Y, 4-{2-[(3RS,4RS,5SR)-4-[4-(3-benzyloxy-propoxy)-phenyl]-3-(naphthalen-2-ylmethoxy)-piperidin-5-yloxy]-ethyl}-morpholine]
13 | 6 |  | COc1ccccc1COCCCOc1ccc([C@H]2CCNC[C@@H]2OCc2ccc3cccnc3c2)cc1 (racemic) [OO, (3RS,4RS)-4-[4-[3-(2-methoxy-benzyloxy)-propoxy]-phenyl]-3-(quinolin-7-ylmethoxy)-piperidine]
14 | 1 |  | COc1ccc(CO[C@H]2CNC[C@@H](O)[C@@H]2c2ccc(OCCCOCc3ccccc3)cc2)cc1 (racemic) [Z, (3RS,4SR,5SR)-4-[4-(3-benzyloxy-propoxy)-phenyl]-3-(4-methoxy-benzyloxy)-piperidin-5-ol]
